Results published in patent US8455543B2, “Platinum complexes and methods for inhibiting tumor cell proliferation” (University of South Florida, priority 2004, dated 2013).
Read-outs that look alike come from different tables or passages of the source. Values belong to the compound of their own block, whether it stands above or below them.

How the values were obtained:
Experiment in all cases: MTT assay, growth inhibition of human tumor cells
Format in all cases: cell-based
Calu-1 = Calu-1 cells, 4 days treatment, several values = separate determinations
Panc-1 = tested on: Panc-1
A549 = tested on: A549
[1] = Homo sapiens, 96 h, MTT assay, Panc-1 cells, 4 days treatment, several values = separate determinations
[2] = MTT assay, Panc-1 cells, 4 days treatment, several values = separate determinations

IC50 (Calu-1; Homo sapiens, 96 h): 250 µM
IC50 (Panc-1; [1]): 5 µM
Compound: O=c1[nH]cc(F)c(=O)[nH]1 [5-FU, 5-fluorouracil, reference compound]

IC50 (Calu-1; Homo sapiens, 96 h): > 250 µM
IC50 (Panc-1; [1]): 1.3 µM
Compound: NC(=O)NO [hydroxyurea, reference compound]

IC50 (Panc-1; [2]): 2.3 µM
Compound: Pt^IV(en) (HOHN—CO—NH2)(NO2) 5-FU [CPA-13]

IC50 (Panc-1; [2]): 2.6 µM
Compound: [Cis-Pt IV(NH3)2(Cl)2(NO2) (5-FU)] [JP3]

Compound: [Cis-Pt IV(NH3)2(Cl)2(NO2) (OP(-salicylate)(OH)O)] [JP6]
IC50 (Panc-1): 5.5 µM

IC50 (Calu-1): 13 µM
Compound: cis-[Pt^IV(NH3)2Cl2NO2-5FU [CPA-14]

Compound: cis-[Pt^IV(NH3)2Cl2NO2-salicylate] [CPA-19]
IC50 (A549): 37 µM
IC50 (Panc-1): 20 µM
